This note sets out measurements from patent US20080200492A1, “METHODS FOR THE TREATMENT OF ALCOHOL ABUSE, ADDICTION AND DEPENDENCY” (priority 2006, published 2008).

The test relates to alcohol preferring rats. In words: Alcohol Preferring Rats In Vivo Model, acute oral dosing, two-bottle choice. Also on record: species or system rat. The conditions noted are these: for Alcohol Intake / Alcohol Preference: mean ± S.E.M., N = 14. How it is done: Adult male selectively-bred alcohol preferring rats (N=14) were used. This particular strain of alcohol drinking rat has been characterized and have been widely used to study the effects of different compounds on voluntary alcohol intake (Farren et al., 2000; Rezvani et al, 1990, 1991, 1992a, 1992b, 1999, 2000, 2003; Murphy et al, 1988; Overstreet et al., 2003, 1999; Li and McBride, 1990). Rats were housed individually in approved cages under a constant room temperature of 22+1° C. and 12:12 light-dark cycle (8:00-20:00, dark). Animal were fed Agway Prolab Rat/Mouse/Hamster 3000 formula and water ad libitum.
Alcohol intake was determined using the standard two-bottle choice method utilized in our and other laboratories for many years (Murphy et al. 1988; Rezvani et al. 1990, 1991, 1993, 1995, 1997, Rezvani and Grady, 1994, Rezvani et al., 1993). Animals were first given free access to water in a graduated Richter tube for 2 days. Next, they were given access to only a solution of 10% (v/v) ethanol for 3 consecutive days. During this period animals became accustomed to drinking from Richter tubes and to the taste and pharmacological effects of alcohol. Thereafter, they were given free access to both water and a solution of 10% alcohol for at least 4 consecutive weeks and throughout of the period of study. Rats had free access to food. Water and alcohol intake were recorded at 6 and 24 hour after the treatment, whereas food intake was measured at 24 hour. Animals' body weights were measured the day of the treatment and the day after.
After establishment of stable baseline for alcohol, food, and water intake, rats were administered (gavage) at 9:30 a.m. either with the vehicle or the compound of formula (I) at one of four doses (1,3,10 and 30 mg/kg) using a cross-over design with random assignment. To be able to compare the efficacy of the compound of formula (I) on alcohol intake naltrexone was included as a positive control. The same rats were given an oral dose of 20 mg/kg naltrexone. All animals will receive all treatments in a random order. The interval between treatments was at least 1 week. Alcohol and water intake were recorded 6 and 24 h after the drug administration and food intake was recorded at 24 hr. The volume of the drug administration was 6 ml/kg.
The results at 6 and 24 hours post-dosing are presented in Tables 3 and 4 below, as means ±SEM. Alcohol intake (g/kg) was calculated by multiplying the volume of alcohol consumed in ml by 10% and 0.7893 (ethanol density)/body weight in kg. Alcohol preference, expressed as a percentage, was calculated as follows (volume of alcohol consumed in ml/total fluid intake in ml)×100 (Rezvani and Grady, 1994; Rezvani et al., 1997). Statistical differences between drug-treated and control groups were determined by using ANOVA with repeated measures. Each treatment was compared with the corresponding vehicle value.

The mark [1] stands for this setting: 1 mg/kg p.o., 6 hrs post-dosing.
The mark [2] stands for this setting: 1 mg/kg p.o., 24 hrs post-dosing.
Setting [3] is: 3 mg/kg p.o., 6 hrs post-dosing.
[4] abbreviates: 3 mg/kg p.o., 24 hrs post-dosing.
[5] abbreviates: 10 mg/kg p.o., 6 hrs post-dosing.
[6] abbreviates: 10 mg/kg p.o., 24 hrs post-dosing.
Setting [7] is: 30 mg/kg p.o, 6 hrs post-dosing.
The mark [8] stands for this setting: 30 mg/kg p.o, 24 hrs post-dosing.
Setting [9] is: 20 mg/kg p.o., 6 hrs post-dosing.
[10] abbreviates: 20 mg/kg p.o., 24 hrs post-dosing.

Regarding `Cc1cccc2cccc(CN3CCC4(CC3)C(=O)N(C[C@H](O)CN)CN4c3ccc(F)cc3)c12` [Cmpd (I-A), 3-(3-amino-2-(R)-hydroxy-propyl)-1-(4-fluoro-phenyl)-8-(8-methyl-naphthalen-1-ylmethyl)-1,3,8-triazaspiro[4.5]decan-4-one], the “Alcohol Intake” value amounted to 1.85 ± 0.234 g/kg under setting [1]; 4.95 ± 0.389 g/kg under setting [2]; 1.53 ± 0.184 g/kg under setting [3]; 4.43 ± 0.339 g/kg under setting [4]; 1.59 ± 0.238 g/kg under setting [5]; 4.73 ± 0.351 g/kg under setting [6]. The “Alcohol Intake” value under setting [7] was found to be 0.905 ± 0.198 g/kg and the “Alcohol Intake” value under setting [8] was 3.16 ± 0.582 g/kg. Besides, the “Alcohol Preference” value is given as 75.1 ± 5.60% under setting [1]; 80.4 ± 4.68% under setting [2]; 61.6 ± 6.19% under setting [3]; 68.9 ± 4.87% under setting [4]; 62.4 ± 6.33% under setting [5]; 71.7 ± 3.56% under setting [6]. For the same compound, the “Alcohol Preference” value runs as follows: under setting [7], 46.7 ± 8.20%; under setting [8], 50.1 ± 7.77%. The “Alcohol preference compared with vehicle” value (30 mg/kg, both 6 hours and 24 hours post-dosing) is reported as “reduced alcohol preference”; the “Alcohol preference compared with vehicle” value (other doses (1, 3, 10 mg/kg), 6 hours and 24 hours post-dosing) was “did not significantly affect alcohol preference”. In addition, the “Alcohol intake compared with vehicle” value (acute oral administration of 3, 10 and 30 mg/kg, at 6 hr) is “significantly reduced alcohol intake”; the “Alcohol intake compared with vehicle” value (at 24 hr, only "the mg/kg dose" (dose figure missing)) is given as “statistically significantly (p<0.0002) in reducing alcohol intake”.

For `O=C1CC[C@@]2(O)[C@H]3Cc4ccc(O)c5c4[C@@]2(CCN3CC2CC2)[C@H]1O5` [Naltrexone, naltrexone, reference compound], under setting [9], the “Alcohol Intake” value came to 1.19 ± 0.25 g/kg and the “Alcohol Preference” value stood at 46.8 ± 7.91%. In addition, under setting [10], the “Alcohol Intake” value turned out to be 3.64 ± 0.545 g/kg and the “Alcohol Preference” value is 58.8 ± 6.77%. Where the note is “naltrexone 20 mg/kg oral, 24 hr post-dosing”, the “Alcohol intake compared with vehicle” value is recorded as “remained statistically significantly (p<0.0028) in reducing alcohol intake”. The “Alcohol preference compared with vehicle” value (naltrexone 20 mg/kg oral, both 6 hours and 24 hours post-dosing) is reported as “reduced alcohol preference”.
